Test results as given in PubChem BioAssay (NCI).
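Step 1: Grow cells in 96-well plates. Step 2: Expose to compound for 48 hours at 5 concentrations. Step 3: Interpolate endpoints linearly; if unreached, use highest concentration. GI50 marks 50% less growth. TGI denotes the concentration required for complete inhibition of growth.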

Key:
Test in all cases: inhibition of tumour cell growth, NCI panel, 48 h
HCC-2998 colon = tested on: HCC-2998 colon
786-0 renal = tested on: 786-0 renal
EKVX NSCLC = tested on: EKVX NSCLC
CCRF-CEM leukemia = tested on: CCRF-CEM leukemia
A498 renal = tested on: A498 renal
OVCAR-5 ovarian = tested on: OVCAR-5 ovarian
MOLT-4 leukemia = tested on: MOLT-4 leukemia
IGROV1 ovarian = tested on: IGROV1 ovarian
HL-60(TB) leukemia = tested on: HL-60(TB) leukemia
HOP-92 NSCLC = tested on: HOP-92 NSCLC

Row | Structure (SMILES) | TGI (HCC-2998 colon) | TGI (786-0 renal) | TGI (EKVX NSCLC) | TGI (CCRF-CEM leukemia) | TGI (A498 renal) | TGI (OVCAR-5 ovarian) | TGI (MOLT-4 leukemia) | TGI (IGROV1 ovarian) | TGI (HL-60(TB) leukemia) | TGI (HOP-92 NSCLC) | GI50 (HCC-2998 colon) | GI50 (786-0 renal) | GI50 (EKVX NSCLC) | GI50 (CCRF-CEM leukemia) | GI50 (A498 renal) | GI50 (OVCAR-5 ovarian) | GI50 (MOLT-4 leukemia) | GI50 (IGROV1 ovarian) | GI50 (HL-60(TB) leukemia) | GI50 (HOP-92 NSCLC)
1 | COC(=O)C1=C(O)C(O)=C(C(=O)OC)C1 | > 100 µM | > 100 µM | > 100 µM | > 100 µM | > 100 µM | > 100 µM | > 100 µM | > 100 µM | > 100 µM | > 100 µM | – | – | – | – | – | – | – | – | – | –
2 | O=C1C=Cc2ccccc2/C1=C/c1[nH]c(=O)[nH]c1O | > 100 µM | 29.5 µM | 25.4 µM | > 100 µM | 10.6 µM | > 100 µM | > 100 µM | 26.6 µM | > 100 µM | 47.8 µM | 7.43 µM | 5.41 µM | 2.46 µM | 4.01 µM | 2.87 µM | 42.8 µM | 4.19 µM | 1.39 µM | 3.44 µM | 5.75 µM
3 | O=C(C(Br)Br)C(Br)C(Br)c1ccccc1 (stereo unspecified) | 33 µM | 11 µM | 43.9 µM | 2.66 µM | 35 µM | 22.2 µM | 4.76 µM | 11.5 µM | 25.7 µM | 19.8 µM | 16.2 µM | 3.47 µM | 14.5 µM | 0.536 µM | 19.7 µM | 6.6 µM | 1.82 µM | 3.56 µM | 5.82 µM | 6.21 µM
4 | COC(=O)c1nc(NC#N)[nH]c(=O)c1C | > 100 µM | > 100 µM | > 100 µM | > 100 µM | > 100 µM | > 100 µM | > 100 µM | > 100 µM | > 100 µM | > 100 µM | – | – | – | – | – | – | – | – | – | –
5 | CS(=O)c1ccc(COP(N)(=O)N(CCCl)CCCl)cc1 (stereo unspecified) | > 100 µM | > 100 µM | > 100 µM | > 100 µM | > 100 µM | > 100 µM | > 100 µM | > 100 µM | > 100 µM | > 100 µM | – | – | – | – | – | – | – | – | – | –
6 | COc1ccc(/C=C2/C[N+](C)(C)C/C(=C/c3ccc(OC)cc3)C2=O)cc1 | 31 µM | > 100 µM | > 100 µM | > 96.1 µM | > 100 µM | > 100 µM | 57.1 µM | 64.7 µM | 44.4 µM | > 100 µM | – | – | – | – | – | – | – | – | – | –
7 | O=C1OC2(c3ccccc3Oc3ccccc32)c2ccccc21 | > 100 µM | > 100 µM | > 100 µM | > 100 µM | > 100 µM | > 100 µM | > 100 µM | > 100 µM | > 100 µM | > 100 µM | – | – | – | – | – | – | – | – | – | –
8 | [N-]=[N+]=NC1C(Br)C(=O)NC(=O)N1[C@H]1C[C@H](O)[C@@H](CO)O1 (stereo partly specified) | > 100 µM | > 100 µM | > 100 µM | > 100 µM | > 100 µM | > 100 µM | > 100 µM | > 100 µM | > 100 µM | > 100 µM | – | – | – | 38 µM | – | – | – | – | – | –
9 | CCN(CC)CCCCCCCNc1c2ccc(Cl)cc2nc2ccc(OC)cc12 | 3.22 µM | 2.35 µM | 4.99 µM | 3.89 µM | 2.51 µM | 7.55 µM | 2.32 µM | 1.65 µM | 3.62 µM | 3.45 µM | 1.76 µM | 0.902 µM | 1.51 µM | 0.619 µM | 1.2 µM | 1.78 µM | 0.372 µM | 0.498 µM | 1.71 µM | 1.29 µM
10 | COc1c(O)ccc2c1CN1CCc3cc4c(cc3C1C2)OCO4 (stereo unspecified) | > 100 µM | > 100 µM | > 100 µM | > 100 µM | > 78.9 µM | > 100 µM | > 100 µM | > 100 µM | > 100 µM | > 100 µM | – | – | – | – | – | – | – | – | – | –
